Assay: wn = mass fraction of the nth substance listed
Conditions: 101 kPa, Liquid, Vibrating tube method

CC#N [acetonitrile] + O
mass density [kg/m3]
Conditions | 293.15 K | 303.15 K | 313.15 K
w1 = 0.1 | 983.2 | 978.7 | 973.5
w1 = 0.2 | 964.2 | 958.2 | 951.6
w1 = 0.4 | 918.7 | 910.9 | 902.8

From the NIST ThermoML archive (doi:10.1021/je400473z)
